From article PMC10544575, “Inhibitory mechanism of vortioxetine on CYP450 enzymes in human and rat liver microsomes” (Frontiers in Pharmacology, 2023)
Like-named read-outs stand apart in the source and are kept apart here.

Tests used:
Type in all cases: in vitro ADME
CYP2D = assay: IC50 of vortioxetine on CYP2D (dextromethorphan) in RLMs; conditions: rat, rat liver microsomes, probe dextromethorphan
Procedure: The components of the incubation system were as follows: 0.20 mg/mL HLMs or 0.20 mg/mL RLMs, 0.1 M Tris-HCl, vortioxetine, and the probe substrates of each enzyme. In the study of Km’s (Michaelis–Menten constant) experiment, midazolam (1, 2, 5, 10, 20, 50 and 100 μM in HLMs and RLMs) corresponded to CYP3A4/3A; bupropion (10, 20, 50, 100, 200, 500, 1,000 and 2000 μM in HLMs; 1, 2, 5, 10, 20, 50, 100 and 200 μM in RLMs) corresponded to CYP2B6/2B; amodiaquine (5, 10, 20, 50, 100 and 200 μM in HLMs; 10, 20, 50, 100, 200, 500 μM in RLMs) corresponded to CYP2C8/CYP2C-1; losartan (1, 2, 5, 10, 20, 50, 100, 200 μM in HLMs; 10, 20, 50, 100, 200, 500 and 1,000 μM in RLMs) corresponded to CYP2C9/CYP2C-2; mephenytoin (20, 50, 100, 200, 500 and 1,000 μM in HLMs; 5, 10, 20, 50, 100, 200, 500 and 1,000 μM in RLMs) corresponded to CYP2C19/CYP2C-3; and dextromethorphan (1, 2, 5, 10, 20, 50 and 100 μM in HLMs and RLMs) corresponded to CYP2D6/CYP2D. […]
(§1) All experiments results were detected by UPLC-MS/MS, which equipped with a Waters Acquity UPLC system (Milford, MA, United States) and a Waters Xevo TQ-S triple quadrupole tandem mass spectrometer with an electrospray ionization source (Milford, MA, United States). […]
(§2) IC50 values and enzyme kinetic parameters were calculated by Graphpad Prism 6.0 (GraphPad software Inc., CA, United States). […] Data for each experiment were expressed as mean ± SD (n = 3).

CYP3A4 = CYP3A4 (Homo sapiens, UniProt P08684); assay: Reversible inhibition kinetics (Lineweaver-Burk), CYP3A4 in HLMs; parameters: 0.20 mg/mL HLMs; from tissue; host or cells: human liver microsomes; conditions: midazolam
Procedure: (§3) The components of the incubation system were as follows: 0.20 mg/mL HLMs or 0.20 mg/mL RLMs, 0.1 M Tris-HCl, vortioxetine, and the probe substrates of each enzyme. In the study of Km’s (Michaelis–Menten constant) experiment, midazolam (1, 2, 5, 10, 20, 50 and 100 μM in HLMs and RLMs) corresponded to CYP3A4/3A; bupropion (10, 20, 50, 100, 200, 500, 1,000 and 2000 μM in HLMs; 1, 2, 5, 10, 20, 50, 100 and 200 μM in RLMs) corresponded to CYP2B6/2B; amodiaquine (5, 10, 20, 50, 100 and 200 μM in HLMs; 10, 20, 50, 100, 200, 500 μM in RLMs) corresponded to CYP2C8/CYP2C-1; losartan (1, 2, 5, 10, 20, 50, 100, 200 μM in HLMs; 10, 20, 50, 100, 200, 500 and 1,000 μM in RLMs) corresponded to CYP2C9/CYP2C-2; mephenytoin (20, 50, 100, 200, 500 and 1,000 μM in HLMs; 5, 10, 20, 50, 100, 200, 500 and 1,000 μM in RLMs) corresponded to CYP2C19/CYP2C-3; and dextromethorphan (1, 2, 5, 10, 20, 50 and 100 μM in HLMs and RLMs) corresponded to CYP2D6/CYP2D. After 5.0 min of preincubation in the shaking water bath, the reaction was started with the addition of 1.0 mM NADPH. The incubated temperature at 37°C for 30 min. After the incubation, the enzyme reaction was stopped by cooling at −80°C, and 200 μL of acetonitrile and 20 μL of internal standard diazepam (200 ng/mL) were added for protein precipitation. The solution was fully vortexed and centrifuged at 13,000 × rpm for 10 min, and the supernatant was collected for data analysis by UPLC-MS/MS.
(§4) The inhibitory mechanism of the inhibitor on the enzyme was generally used by different concentrations of the inhibitor against different concentrations of the probe substrate. The concentrations of the inhibitor and the concentrations of probe substrates in the experiment were estimated based on IC50 and Km values, respectively.
(§5) In HLMs, the concentrations of the substrates midazolam, bupropion, amodiaquine, losartan, mephenytoin, and dextromethorphan were 1, 2, 4, 8 μM; 10, 20, 40, 80 μM; 0.8, 1.5, 3, 6 μM; 2, 4, 8, 16 μM; 20, 45, 90, 180 μM; 2.5, 5, 10, 20 μM, respectively. Corresponding to the concentration of vortioxetine were 2, 4, 9, 18 μM; 2, 4, 8, 16 μM; 4, 8, 15, 30 μM; 5, 10, 25, 50 μM; 0.6, 1.2, 2.5, 5 μM; 4.5, 9, 18, 36 μM, respectively.
as §1, with “States). The chromatographic separation was performed on a Waters ACQUITY UPLC BEH C18 column (2.1 × 50 mm, 1.7 μm, Waters Corp.) at 40°C.” for “States).”
as §2

CYP2B6 = target: T1, CYP2B6 (Homo sapiens, UniProt P20813); assay: Reversible inhibition kinetics (Lineweaver-Burk), CYP2B6 in HLMs; parameters: 0.20 mg/mL HLMs; from tissue; host or cells: human liver microsomes; conditions: bupropion
T1 sequence (P20813 1-491): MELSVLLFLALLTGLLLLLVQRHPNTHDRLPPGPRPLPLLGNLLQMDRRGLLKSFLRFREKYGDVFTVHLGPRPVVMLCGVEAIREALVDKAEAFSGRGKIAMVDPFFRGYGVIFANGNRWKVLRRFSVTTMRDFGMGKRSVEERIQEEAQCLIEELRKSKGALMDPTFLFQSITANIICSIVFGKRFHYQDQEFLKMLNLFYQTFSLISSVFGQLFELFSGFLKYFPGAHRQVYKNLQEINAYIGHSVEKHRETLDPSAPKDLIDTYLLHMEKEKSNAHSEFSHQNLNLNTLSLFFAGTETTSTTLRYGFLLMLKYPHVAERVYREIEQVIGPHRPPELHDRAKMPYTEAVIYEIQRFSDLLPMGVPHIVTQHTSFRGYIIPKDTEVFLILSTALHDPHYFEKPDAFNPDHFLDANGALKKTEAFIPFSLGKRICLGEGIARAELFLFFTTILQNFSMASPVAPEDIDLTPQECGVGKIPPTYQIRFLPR
Procedure: as §3, §4, §5
as §1, with “States). The chromatographic separation was performed on a Waters ACQUITY UPLC BEH C18 column (2.1 × 50 mm, 1.7 μm, Waters Corp.) at 40°C.” for “States).”
as §2

CYP2C9 = CYP2C9 (Homo sapiens, UniProt P11712); assay: Reversible inhibition kinetics (Lineweaver-Burk), CYP2C9 in HLMs; parameters: 0.20 mg/mL HLMs; from tissue; host or cells: human liver microsomes; conditions: losartan
Procedure: as §3, §4, §5
as §1, with “States). The chromatographic separation was performed on a Waters ACQUITY UPLC BEH C18 column (2.1 × 50 mm, 1.7 μm, Waters Corp.) at 40°C.” for “States).”
as §2

Sequence of CYP3A4 (P08684 whole entry): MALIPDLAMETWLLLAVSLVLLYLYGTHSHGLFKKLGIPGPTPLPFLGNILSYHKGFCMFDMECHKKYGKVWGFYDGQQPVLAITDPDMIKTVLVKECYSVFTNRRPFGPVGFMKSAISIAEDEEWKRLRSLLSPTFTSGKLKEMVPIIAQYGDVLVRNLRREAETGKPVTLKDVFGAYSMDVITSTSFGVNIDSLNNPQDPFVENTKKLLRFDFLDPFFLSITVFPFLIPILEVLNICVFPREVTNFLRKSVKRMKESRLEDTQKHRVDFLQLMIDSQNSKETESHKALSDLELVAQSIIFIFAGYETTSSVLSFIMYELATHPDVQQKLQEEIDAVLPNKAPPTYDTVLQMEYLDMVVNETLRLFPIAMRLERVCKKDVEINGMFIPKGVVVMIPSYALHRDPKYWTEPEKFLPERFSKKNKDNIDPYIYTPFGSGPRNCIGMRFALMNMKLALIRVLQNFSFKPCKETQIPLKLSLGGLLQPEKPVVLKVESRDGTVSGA
Sequence of CYP2C9 (P11712 whole entry): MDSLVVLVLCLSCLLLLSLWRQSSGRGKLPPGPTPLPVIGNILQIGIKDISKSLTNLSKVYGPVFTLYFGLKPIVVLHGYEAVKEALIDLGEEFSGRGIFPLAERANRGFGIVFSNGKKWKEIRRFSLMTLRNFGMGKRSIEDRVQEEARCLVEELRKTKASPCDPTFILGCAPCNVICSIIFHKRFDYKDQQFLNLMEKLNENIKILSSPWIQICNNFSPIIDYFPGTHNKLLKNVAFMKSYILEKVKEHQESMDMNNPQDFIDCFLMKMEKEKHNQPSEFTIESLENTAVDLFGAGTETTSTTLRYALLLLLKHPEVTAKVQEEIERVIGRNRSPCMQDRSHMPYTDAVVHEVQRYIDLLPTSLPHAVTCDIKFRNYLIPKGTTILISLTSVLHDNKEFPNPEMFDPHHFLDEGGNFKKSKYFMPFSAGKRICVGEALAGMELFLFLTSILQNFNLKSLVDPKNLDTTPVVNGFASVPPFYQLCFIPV

IC50 at 30 min (CYP2D; RLMs 0.20 mg/mL, dextromethorphan at Km, 37°C, 30 min, read-out: IC50): 15.7 µM
IC50 at 30 min (CYP2D; inhibitory effect (strength judged by IC50), RLMs): > 10 µM
Ki (CYP3A4): 7.26 µM
α (CYP3A4): 0.94
Inhibition type (CYP3A4; Lineweaver-Burk plot): noncompetitive inhibition
αKi (CYP3A4; secondary plot of y-intercepts): 6.82 µM
Ki (CYP2B6): 8.55 µM
α (CYP2B6): 2.70
Inhibition type (CYP2B6; Lineweaver-Burk plot): mixed inhibition
αKi (CYP2B6; secondary plot of y-intercepts): 23.04 µM
Ki (CYP2C9): 4.17 µM
α (CYP2C9): 15.94
Inhibition type (CYP2C9; Lineweaver-Burk plot): mixed inhibition
αKi (CYP2C9; secondary plot of y-intercepts): 66.5 µM
SMILES: Cc1ccc(Sc2ccccc2N2CCNCC2)c(C)c1 [vortioxetine]
